One compound from paper PMC5484532 (Biochimie, 2017) can be followed below.

This experiment deals with Leishmania donovani tyrosyl-tRNA synthetase (LdTyrRS) (Leishmania donovani, UniProt A0A3Q8ID88). Kind of experiment: X-ray co-crystal structure at […] Å. The format is biochemical.

As usually defined, the IC50 is the midpoint of a concentration-inhibition curve. A low value points to greater potency.

In turn, `Nc1ncnc2c1ncn2[C@@H]1O[C@H](COS(=O)(=O)NC(=O)[C@@H](N)Cc2ccc(O)cc2)[C@@H](O)[C@H]1O` [TyrSA, 5'-O-[N-(L-tyrosyl)sulfamoyl]adenosine] came in with an IC50 of 690 pM.
